≈ marks a conversion by molar mass, not a printed value. Calls of active or inactive are those of the source. No cut-off for these calls is given here. Where only a bound is given, the exact number is not on record here.

For test [1], the system named is Staphylococcus aureus. Nature of the test: Antimicrobial activity against Staphylococcus aureus ACC 601065 after 24 hrs by broth microdilution method. The test is classed as functional. The note with it: ACC 601065, 24 h.
The test system of test [2] is Staphylococcus aureus. The test is described as follows: Antimicrobial activity against Staphylococcus aureus ACC 601065 compound preincubated with 0.1 M hydrochoric acid for 40 mins measured after 24 hrs by broth microdilution method. The test is classed as functional.
Test [3] concerns Streptococcus pyogenes. The test is described as follows: Antimicrobial activity against Streptococcus pyogenes after 24 hrs by broth microdilution method. The test is classed as functional. (In general: Dilution methods test growth across graded concentrations, often in twofold steps.)
Test [4] has as its system Streptococcus pyogenes. Nature of the test: Antimicrobial activity against Streptococcus pyogenes compound preincubated with 0.1 M hydrochoric acid for 40 mins measured after 24 hrs by broth microdilution method. The test is classed as functional.
Test [5] has as its system Haemophilus influenzae. The test is described as follows: Antimicrobial activity against Haemophilus influenzae ATC 12699 after 24 hrs by broth microdilution method. The test is classed as functional. The note with it: ATC 12699, 24 h.
The test system of test [6] is Haemophilus influenzae. The test is described as follows: Antimicrobial activity against Haemophilus influenzae ATC 12699 compound preincubated with 0.1 M hydrochoric acid for 40 mins measured after 24 hrs by broth microdilution method. It is filed as functional.
Test [7] deals with Escherichia coli. Nature of the test: Binding affinity to Escherichia coli MRE 600 30S ribosome in 2M LiCl in buffered D2O at pH 7.4 by NMR analysis.
Test [8] has as its system Escherichia coli. The test is described as follows: Binding affinity to Escherichia coli MRE 600 50S ribosome in 2M LiCl in buffered D2O at pH 7.4 by NMR analysis.
For test [9], the system named is Burkholderia cepacia. The test is described as follows: Antimicrobial activity against Burkholderia cepacia after 24 hrs by broth microdilution method. The test is classed as functional, organism-based.
The subject of test [10] is Burkholderia cepacia. Nature of the test: Antimicrobial activity against Burkholderia cepacia compound preincubated with 0.1 M hydrochoric acid for 40 mins measured after 24 hrs by broth microdilution method. It is filed as functional, organism-based.

As for `CC[C@H]1OC(=O)[C@H](C)[C@@H](O[C@H]2C[C@@](C)(OC)[C@@H](O)[C@H](C)O2)[C@H](C)[C@@H](O[C@@H]2O[C@H](C)C[C@H](N(C)C)[C@H]2O)[C@](C)(O)C[C@@H](C)C(=O)[C@H](C)[C@@H](O)[C@H]1C` [BERYTHROMYCIN], the MIC in test [1] amounted to 0.7 µg/mL (≈ 0.975 µM); in test [2], 1.4 µg/mL (≈ 1.95 µM); in test [3] it was 0.2 µg/mL (≈ 0.279 µM); in [4] it was 0.3 µg/mL (≈ 0.418 µM); in test [5], 2.3 µg/mL (≈ 3.2 µM); in test [6], 3.6 µg/mL (≈ 5.01 µM). Besides, the outcome in test [7] was inactive. Moreover, in test [8], the result was Active. The MIC result in [9] and in test [10] was “inactive” each time.
On to `CC[C@H]1OC(=O)[C@H](C)[C@@H](O[C@H]2C[C@@](C)(OC)[C@@H](O)[C@H](C)O2)[C@H](C)[C@@H](O[C@@H]2O[C@H](C)C[C@H](N(C)C)[C@H]2O)[C@](C)(OC)C[C@@H](C)C(=O)[C@H](C)[C@@H](O)[C@]1(C)O` [CLARITHROMYCIN], for which the MIC was found to be 0.6 µg/mL (≈ 0.802 µM) in [1]; 0.9 µg/mL (≈ 1.2 µM) in [2]; 0.2 µg/mL (≈ 0.267 µM) in test [3]; 0.3 µg/mL (≈ 0.401 µM) in test [4]; 0.6 µg/mL (≈ 0.802 µM) in test [5]; 1.8 µg/mL (≈ 2.41 µM) in test [6]. Also, the MIC entry in [9] and in test [10] was “inactive” in each case.
For the compound `CC[C@H]1OC(=O)[C@H](C)[C@@H](O[C@H]2C[C@@](C)(OC)[C@@H](O)[C@H](C)O2)[C@H](C)[C@@H](O[C@@H]2O[C@H](C)C[C@H](N(C)C)[C@H]2O)[C@](C)(O)C[C@@H](C)C(=O)[C@H](C)[C@@H](O)[C@]1(C)O` [ERYTHROMYCIN], the MIC in test [1] is 0.9 µg/mL (≈ 1.23 µM); in test [2], > 8 µg/mL; in [3] it was 0.2 µg/mL (≈ 0.273 µM); in test [4] it was 1 µg/mL (≈ 1.36 µM); in [5], 2.2 µg/mL (≈ 3 µM); in [6], > 4 µg/mL. The MIC result in test [9] and in test [10] was “inactive” each time.

(Values after ChEMBL document CHEMBL3217711, “Erythromycin B: conformational analysis and antibacterial activity” (2011).)
